Among the data in patent US9045493B2, “Furo[3,2-b]- and thieno[3,2-b]pyridin derivatives” (Merck Patent GmbH, priority 2012, dated 2015) are IC50 values, retold here.

One assay relates to phospho-IRF3 @ Ser 386. The assay is described as follows: Cell test: dose response inhibition of phospho-IRF3 @ Ser 386 in MDA-MB-468 cells. The conditions noted are these: Homo sapiens, Poly(I:C) stimulation, read-out: IC50 (reference inhibitor, phospho-IRF3 cell test). The class given is cell-based. The source says:
Dose Response Inhibition of Phospho-IRF3 @ Ser 386 Cell/MDAMB468/INH/PHOS/IMAG/pIRF3
This assay has been devised in order to assess the efficacy/potency of TBK1/IKKε inhibitor compounds based on the immunocytochemical detection of nuclear localised phospho-IRF3, a target directly downstream of TBK1.
Treatment with Polyinosine-polycytidylic acid (poly(I:C), a synthetic analog of doublestranded RNA (dsRNA), a molecular pattern associated with viral infection which is recognized by Toll-like receptor 3 (TLR3) is used to induce TBK1/IKKe activity and IRF3 phosphorylation at Ser386.
• Day 1: MDA-MB-468 cells are detached with HyQ-Tase, counted, and seeded into a 384-well clear bottom TC-surface plate at density of 10,000 cells per well in a total volume of 35 ul complete medium. Alternatively cells are directly seeded from frozen vials. • Day 2: Cells are pre-treated with inhibitor compounds for 1 h prior to Poly(I:C) stimulation. After 2 h of incubation with Poly(I:C), cells are fixed in (para)formaldehyde (PFA) and permeabilized with methanol (MeOH). The cells are then blocked and incubated with an anti-pIRF3 antibody at 4° C. overnight. • Day 3: The primary antibody is washed off, an AlexaFluor488-conjugated secondary is added, cells are counterstained with propidium iodide followed by image acquisition on IMX Ultra high content reader.

The target in assay [1] is T1, TANK binding kinase (TBK1) (Homo sapiens, UniProt Q9UHD2).
T1 sequence (Q9UHD2 1-729): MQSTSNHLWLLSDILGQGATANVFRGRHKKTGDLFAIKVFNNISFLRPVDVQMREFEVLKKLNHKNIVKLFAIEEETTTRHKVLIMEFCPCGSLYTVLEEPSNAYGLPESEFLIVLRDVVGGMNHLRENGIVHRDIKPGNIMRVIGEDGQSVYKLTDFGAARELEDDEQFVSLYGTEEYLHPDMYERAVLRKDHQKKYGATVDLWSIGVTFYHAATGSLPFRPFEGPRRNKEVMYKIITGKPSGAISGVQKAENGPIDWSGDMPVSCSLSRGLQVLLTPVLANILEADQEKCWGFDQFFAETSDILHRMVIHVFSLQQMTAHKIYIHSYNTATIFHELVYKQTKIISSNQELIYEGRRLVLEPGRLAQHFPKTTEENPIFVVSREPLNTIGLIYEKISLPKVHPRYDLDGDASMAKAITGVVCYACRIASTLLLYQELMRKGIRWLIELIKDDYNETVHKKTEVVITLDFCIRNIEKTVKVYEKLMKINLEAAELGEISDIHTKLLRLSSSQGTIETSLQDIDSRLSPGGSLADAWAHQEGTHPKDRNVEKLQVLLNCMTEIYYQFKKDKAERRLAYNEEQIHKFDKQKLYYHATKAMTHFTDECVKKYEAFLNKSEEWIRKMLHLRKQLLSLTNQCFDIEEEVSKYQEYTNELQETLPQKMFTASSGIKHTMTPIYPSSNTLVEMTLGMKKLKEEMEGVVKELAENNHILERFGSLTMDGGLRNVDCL
Briefly: TBK1 enzyme assay (384-well Flashplate kinase assay). It counts as biochemical. The conditions noted are these: 10 μM ATP, 120 Min at 30° C. The procedure, abridged:
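Radiometric Flashplate assay: 0.6 nM TBK1, 800 nM biotinylated MELK-derived peptide and 10 μM ATP with 33P-ATP, 120 min at 30 °C in MOPS/Mg-acetate buffer pH 7.5. Stopped with EDTA; nonspecific signal defined with 100 nM staurosporine; IC50 from counted radioactivity.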

For another assay, the target named is T2, IKKε (Homo sapiens, UniProt Q14164).
T2 sequence (Q14164 1-716): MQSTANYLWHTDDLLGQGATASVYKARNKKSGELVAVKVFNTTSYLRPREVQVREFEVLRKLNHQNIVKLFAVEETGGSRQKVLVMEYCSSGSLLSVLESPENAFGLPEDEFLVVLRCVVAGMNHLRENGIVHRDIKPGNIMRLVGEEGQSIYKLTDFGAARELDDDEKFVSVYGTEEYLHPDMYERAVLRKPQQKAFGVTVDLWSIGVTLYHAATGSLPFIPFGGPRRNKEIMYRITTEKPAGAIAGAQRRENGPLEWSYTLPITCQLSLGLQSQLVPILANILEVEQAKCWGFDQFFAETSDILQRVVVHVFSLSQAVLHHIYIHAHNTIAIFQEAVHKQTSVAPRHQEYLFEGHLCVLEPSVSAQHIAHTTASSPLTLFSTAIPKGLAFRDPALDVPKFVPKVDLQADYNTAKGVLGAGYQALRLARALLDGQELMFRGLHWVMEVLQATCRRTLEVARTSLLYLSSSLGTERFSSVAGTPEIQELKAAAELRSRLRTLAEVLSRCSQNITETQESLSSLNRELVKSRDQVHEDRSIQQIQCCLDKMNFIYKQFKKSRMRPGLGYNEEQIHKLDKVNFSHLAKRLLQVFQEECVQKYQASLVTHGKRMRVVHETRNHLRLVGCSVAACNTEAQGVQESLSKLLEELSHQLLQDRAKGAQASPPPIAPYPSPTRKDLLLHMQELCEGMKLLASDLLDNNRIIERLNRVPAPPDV
The assay is described as follows: IKKε kinase assay (384-well Flashplate). The conditions noted are these: 10 μM ATP, 2 hours at 30° C.; read-out: IKKε enzyme assay IC50. The class given is biochemical. The procedure, abridged:
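1 nM IKKε with 800 nM biotinylated IκBα(19-42) peptide and 10 μM ATP spiked with ^33P-ATP, 2 h at 30 °C in MOPS buffer pH 7.5. EDTA stop, Flashplate capture, washes, then radioactivity counted; IC50 derived.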

SMILES strings stand for the structures. A value given as a limit tells only on which side of the number the result lay.

The term IC50 denotes the concentration that gives 50% inhibition. As to `O=C(NCCCNc1nc(Nc2cccc(NC(=O)N3CCCC3)c2)ncc1I)c1cccs1` [BX-795], in the assay with phospho-IRF3 @ Ser 386, the IC50 is 0.2 to 0.8 µM. As for `COc1cc(C(=O)N(C)CCO)ccc1-c1cc2nccc(-c3ccc(OC4CCOCC4)c(C#N)c3)c2o1` [Compound A115], the IC50 (in assay [1]; on IKKε) was < 0.3 µM throughout. In the case of `COc1cc(C(=O)N2CCC(O)CC2)ccc1-c1cc2nccc(-c3ccc(OC4CCOCC4)c(C#N)c3)c2o1` [Compound A116], the IC50 (in assay [1]; at IKKε) was < 0.3 µM each time. As for `COc1cc(C(=O)N(C)C)ccc1-c1cc2nccc(-c3ccc(OC4CCOCC4)c(C#N)c3)c2o1` [Compound A117], the IC50 (in assay [1]; at IKKε) was < 0.3 µM each time. As for `COc1cc(C(=O)N[C@H]2CCCNC2)ccc1-c1cc2nccc(-c3ccc(OC4CCOCC4)c(C#N)c3)c2o1` [Compound A118], the IC50 (in assay [1]; at IKKε) was < 0.3 µM throughout. On to `COCCn1cc(-c2cc3nccc(-c4ccc(OC5CCOCC5)c(C#N)c4)c3s2)cn1` [Compound A119], for which the IC50 (in assay [1]; on IKKε) was < 0.3 µM throughout. Regarding `COc1cc(C(=O)N[C@@H]2CCCNC2)ccc1-c1cc2nccc(-c3ccc(OC4CCOCC4)c(C#N)c3)c2o1` [Compound A120], the IC50 (in assay [1]; on IKKε) was < 0.3 µM each time.
